system: IFNα-induced pSTAT5 (pY694) in CD3 positive cells of human whole blood; assay: IFNα-Induced STAT Phosphorylation in Human Whole Blood; format: cell-based; details: Homo sapiens, 1 h compound incubation, 1000 U/mL recombinant human IFNα A/D for 15 min, pSTAT5 in CD3 positive population, read-out: Human WB IFNα-Induced Stat Phosph. (IC50)
Summary of the method: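 Read-out is median fluorescence intensity of pSTAT5 (pY694) in the CD3-positive gate, by flow cytometry after fix/lyse and permeabilization. Before that, whole human blood anticoagulated with EDTA or ACD-A received compound for an hour and 1000 U/mL IFNα A/D for 15 min.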

| IC50 | SMILES |
| --- | --- |
| > 10000 nM | [2H]C([2H])([2H])NC(=O)c1nnc(Nc2cnc(OC)cn2)cc1Nc1cccc(-c2csc(C(=O)N3CCOCC3)n2)c1OC [Example 564] |
| 1380 nM | [2H]C([2H])([2H])NC(=O)c1nnc(NC(=O)C2CC2)cc1Nc1cccc(-c2noc(CNC(=O)OC)n2)c1OC [Example 30] |
| 260 nM | [2H]C([2H])([2H])NC(=O)c1nnc(NC(=O)C2CC2)cc1Nc1cccc(-c2ncc(C(=O)N3CCNC(=O)C3C)s2)c1OC (stereo not shown) [Example 336] |
| 40 nM | COc1c(Nc2cc(NC(=O)C3CC3)nnc2C(N)=O)cccc1-c1ncc(C(=O)NCCC2CCCN2C)o1 (stereo not shown) [Example 415] |

Source: US12240840B2, “Amide-substituted heterocyclic compounds for the treatment of conditions related to the modulation of IL-12, IL-23 and/or IFN-alpha” (BRISTOL-MYERS SQUIBB COMPANY, priority 2018, dated 2025)
